For 24 compounds, IC50 results are on record in US9029391B2 (priority 2011, dated 2015).

This assay relates to HIV. The experiment in a line: MT4 Assay (anti-HIV activity). In kind it is cell-based. Particulars: Human immunodeficiency virus 1, 96 h, read-out: HIV MT4 Assay IC50, HTLV-1 transformed cell line MT-4, cell titer glo, 10 point dose response curve. A digest of the protocol: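 IC50 values were fitted to 10-point dose-response series (3-4-fold dilutions, range >1000-fold), normalized to no-compound control. CellTiter-Glo read-out was taken after 96 hours in HTLV-1-transformed MT-4 cells. Cytotoxicity was measured in parallel under identical conditions.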
For the compound `Cc1c(-c2c(C(OC(C)(C)C)C(=O)O)n(C)c(=O)c3ccc(F)cc23)cc(F)c2c1CCCO2` (stereo not drawn) [Example 91, 2-(tert-butoxy)-2-[6-fluoro-4-(8-fluoro-5-methyl-3,4-dihydro-2H-1-benzopyran-6-yl)-2-methyl-1-oxo-1,2-dihydroisoquinolin-3-yl]acetic acid], the IC50 was found to be 440 nM.

Regarding `Cc1ccccc1-c1c(C(OC(C)(C)C)C(=O)O)n(C)c(=O)c2ccccc12` (stereo not drawn) [Example 71, 2-(tert-butoxy)-2-[2-methyl-4-(2-methylphenyl)-1-oxo-1,2-dihydroisoquinolin-3-yl]acetic acid], the IC50 is 1450 nM.

In the case of `COc1cccc(-c2ccc3c(-c4cc(F)c5c(c4C)CCCO5)c([C@H](OC(C)(C)C)C(=O)O)n(C)c(=O)c3c2)n1` (atropisomer, axis not shown; (M)) [Example 208, (2S)(M)-[(1,1-dimethylethyl)oxy]{4-(8-fluoro-5-methyl-3,4-dihydro-2H-chromen-6-yl)-2-methyl-7-[6-(methyloxy)-2-pyridinyl]-1-oxo-1,2-dihydro-3-isoquinolinyl}ethanoic acid], the IC50 came out at 40 nM.

For the compound `Cc1c(-c2c(C(OC(C)(C)C)C(=O)O)n(C)c(=O)c3cc(OCc4cccnc4)ccc23)ccc2c1CCCO2` (stereo not drawn) [Example 97, 2-(tert-butoxy)-2-[2-methyl-4-(5-methyl-3,4-dihydro-2H-1-benzopyran-6-yl)-1-oxo-7-(pyridin-3-ylmethoxy)-1,2-dihydroisoquinolin-3-yl]acetic acid], the IC50 is 370 nM.

For `Cn1c(C(OC(C)(C)C)C(=O)O)c(-c2ccc3c(c2)CCCO3)c2cccc(F)c2c1=O` (stereo not drawn) [Example 35, 2-(tert-butoxy)-2-[4-(3,4-dihydro-2H-1-benzopyran-6-yl)-8-fluoro-2-methyl-1-oxo-1,2-dihydroisoquinolin-3-yl]acetic acid], the IC50 is 1890 nM.

For the compound `Cn1c(C(OC(C)(C)C)C(=O)O)c(-c2ccc3ncsc3c2)c2ccccc2c1=O` (stereo not drawn) [Example 153, 2-(4-(benzo[d]thiazol-6-yl)-2-methyl-1-oxo-1,2-dihydroisoquinolin-3-yl)-2-(tert-butoxy)acetic acid], the IC50 amounted to 3880 nM.

For `COCc1ccc(-c2c(C(OC(C)(C)C)C(=O)O)n(C)c(=O)c3ccccc23)cc1` (stereo not drawn) [Example 49, 2-(tert-butoxy)-2-{4-[4-(methoxymethyl)phenyl]-2-methyl-1-oxo-1,2-dihydroisoquinolin-3-yl}acetic acid], the IC50 came out at 15600 nM.

Consider `Cc1c(-c2c([C@H](OC(C)(C)C)C(=O)O)n(C)c(=O)c3cc(N4CCCCC4)ccc23)cc(F)c2c1CCCO2` (atropisomer, axis not shown; (M)) [Example 166, (2S)(M)-[(1,1-dimethylethyl)oxy][4-(8-fluoro-5-methyl-3,4-dihydro-2H-chromen-6-yl)-2-methyl-1-oxo-7-(1-piperidinyl)-1,2-dihydro-3-isoquinolinyl]ethanoic acid], for which the IC50 was 20 nM.

With `Cn1c(C(OC(C)(C)C)C(=O)O)c(-c2ccc3c(c2)CCCO3)c2cc(F)ccc2c1=O` (stereo not drawn) [Example 25, 2-(tert-butoxy)-2-[4-(3,4-dihydro-2H-1-benzopyran-6-yl)-6-fluoro-2-methyl-1-oxo-1,2-dihydroisoquinolin-3-yl]acetic acid], the IC50 worked out at 670 nM.

As for `Cn1c(C(OC(C)(C)C)C(=O)O)c(-c2ccc(Cl)cc2)c2ccccc2c1=O` (stereo not drawn) [Example 154, [4-(4-chlorophenyl)-2-methyl-1-oxo-1,2-dihydro-3-isoquinolinyl][(1,1-dimethylethyl)oxy]acetic acid], the IC50 was found to be 2090 nM.

Regarding `Cc1c(-c2c(C(OC(C)(C)C)C(=O)O)n(C)c(=O)c3cc(OCc4ccc(C(F)(F)F)cc4)ccc23)ccc2c1CCCO2` (stereo not drawn) [Example 132, 2-(tert-butoxy)-2-[2-methyl-4-(5-methyl-3,4-dihydro-2H-1-benzopyran-6-yl)-1-oxo-7-{[4-(trifluoromethyl)phenyl]-methoxy}-1,2-dihydroisoquinolin-3-yl]acetic acid], the IC50 turned out to be 310 nM.

With `Cn1c(C(OC(C)(C)C)C(=O)O)c(-c2ccc3c(c2)OCCO3)c2ccccc2c1=O` (stereo not drawn) [Example 53, 2-(tert-butoxy)-2-[4-(2,3-dihydro-1,4-benzodioxin-6-yl)-2-methyl-1-oxo-1,2-dihydroisoquinolin-3-yl]acetic acid], the IC50 is 2460 nM.

In the case of `Cc1c(-c2c([C@H](OC(C)(C)C)C(=O)N(C)O)n(C)c(=O)c3ccccc23)cc(F)c2c1CCCO2` (atropisomer, axis not shown; (M)) [Example 214, (S)(M)-2-(tert-butoxy)-2-(4-(8-fluoro-5-methylchroman-6-yl)-2-methyl-1-oxo-1,2-dihydroisoquinolin-3-yl)-N-hydroxy-N-methylacetamide], the IC50 was found to be 4840 nM.

As to `Cc1ccc(-c2c(C(OC(C)(C)C)C(=O)O)n(C)c(=O)c3cc(-c4cnn(C)c4)ccc23)cc1C` (stereo not drawn) [Example 192, [(1,1-dimethylethyl)oxy][4-(3,4-dimethylphenyl)-2-methyl-7-(1-methyl-1H-pyrazol-4-yl)-1-oxo-1,2-dihydro-3-isoquinolinyl]acetic acid], the IC50 was determined as 350 nM.

As to `Cn1c(C(OC(C)(C)C)C(=O)O)c(-c2cnc3c(c2)CCCO3)c2ccccc2c1=O` (stereo not drawn) [Example 118, 2-(tert-butoxy)-2-(2-methyl-1-oxo-4-{2H,3H,4H-pyrano[2,3-b]pyridin-6-yl}-1,2-dihydroisoquinolin-3-yl)acetic acid], the IC50 amounted to 41600 nM.

With `CC(=O)N1CCOc2ccc(-c3c(C(OC(C)(C)C)C(=O)O)n(C)c(=O)c4ccccc34)c(Cl)c21` (stereo not drawn) [Example 116, 2-[4-(4-acetyl-5-chloro-3,4-dihydro-2H-1,4-benzoxazin-6-yl)-2-methyl-1-oxo-1,2-dihydroisoquinolin-3-yl]-2-(tert-butoxy)acetic acid], the IC50 is 33200 nM.

`Cc1ccc2c(-c3ccc4c(c3C)CCCO4)c([C@H](OC(C)(C)C)C(=O)O)n(C)c(=O)c2c1` [Example 115, (2S)-2-(tert-butoxy)-2-[2,7-dimethyl-4-(5-methyl-3,4-dihydro-2H-1-benzopyran-6-yl)-1-oxo-1,2-dihydroisoquinolin-3-yl]acetic acid]: the IC50 is 20 nM.

Take `Cn1c(C(OC(C)(C)C)C(=O)O)c(-c2ccc3c(c2)NCCO3)c2ccccc2c1=O` (stereo not drawn) [Example 82, 2-(tert-butoxy)-2-[4-(3,4-dihydro-2H-1,4-benzoxazin-6-yl)-2-methyl-1-oxo-1,2-dihydroisoquinolin-3-yl]acetic acid]: the IC50 amounted to 7400 nM.

Take `Cc1c(-c2c([C@H](OC(C)(C)C)C(=O)O)n(C)c(=O)c3cc(-c4cccc(F)c4)ccc23)cc(F)c2c1CCCO2` (atropisomer, axis not shown; (M)) [Example 210, (S)(M)-2-(tert-butoxy)-2-(4-(8-fluoro-5-methylchroman-6-yl)-7-(3-fluorophenyl)-2-methyl-1-oxo-1,2-dihydroisoquinolin-3-yl)acetic acid]: the IC50 is 10 nM.

Take `Cc1ccc2c(-c3ccc(C)c(C)c3)c(C(OC(C)(C)C)C(=O)O)n(C)c(=O)c2c1` (stereo not drawn) [Example 60, 2-(tert-butoxy)-2-[4-(3,4-dimethylphenyl)-2,7-dimethyl-1-oxo-1,2-dihydroisoquinolin-3-yl]acetic acid]: the IC50 was found to be 1290 nM.

Turning to `Cc1c(-c2c(C(OC(C)(C)C)C(=O)O)n(C)c(=O)c3ccccc23)ccc2c1CCCO2` (stereo not drawn) [Example 19, 2-(tert-butoxy)-2-[2-methyl-4-(5-methyl-3,4-dihydro-2H-1-benzopyran-6-yl)-1-oxo-1,2-dihydroisoquinolin-3-yl]acetic acid], the IC50 was found to be 410 nM.

Regarding `Cn1c(C(OC(C)(C)C)C(=O)O)c(-c2ccc(F)cc2)c2ccccc2c1=O` (stereo not drawn) [Example 9, 2-(tert-butoxy)-2-[4-(4-fluorophenyl)-2-methyl-1-oxo-1,2-dihydroisoquinolin-3-yl]acetic acid], the IC50 worked out at 1330 nM.

Take `Cn1c(C(OC(C)(C)C)C(=O)O)c(-c2cccc(OC(F)(F)F)c2)c2ccccc2c1=O` (stereo not drawn) [Example 16, 2-(tert-butoxy)-2-{2-methyl-1-oxo-4-[3-(trifluoromethoxy)phenyl]-1,2-dihydroisoquinolin-3-yl}acetic acid]: the IC50 worked out at 20700 nM.

With `Cn1c(C(OC(C)(C)C)C(=O)O)c(-c2ccc3c(c2)CCCO3)c2ccccc2c1=O` (stereo not drawn) [Example 39, 2-(tert-butoxy)-2-[4-(3,4-dihydro-2H-1-benzopyran-6-yl)-2-methyl-1-oxo-1,2-dihydroisoquinolin-3-yl]acetic acid], the IC50 was 1880 nM.
